Measured values reported in patent US12036197B2, “Composition for improving bioavailability of drugs” (priority 2019, dated 2024).
Where a SMILES comes first, the peptide text is derived from it.

Key:
[1] = PK test for small-intestinal administration of ACTH (ELISA); format: in vivo; settings: SD rats
Description: (§1) Laboratory Animals: Adult Male SD Rats.
(§2) The plasma was collected and subjected to quick freezing.

[2] = PK test for small-intestinal administration of Bivalirudin (ELISA); format: in vivo; settings: SD rats
Description: as §1, §2

[3] = in vivo
Description: as §1, §2

[4] = in vivo; parameters: species or system SD rats; settings: male, SD, rat
Description: The composition of the present invention: polyethylene glycol 4000, carbomer, chitosan oligosaccharide, and citric acid, in a weight ratio of 19:6:6:60.
as §1, §2

[5] = PK test for small-intestinal administration of Octreotide (ELISA); format: in vivo; settings: SD rats
Description: as §1, §2

[6] = PK test for small-intestinal administration of Oxytocin (ELISA); format: in vivo; settings: SD rats
Description: as §1, §2

[7] = PK test for small-intestinal administration of Teduglutide (ELISA); format: in vivo; settings: SD rats
Description: The composition of the present invention: Tween 80, Carbomer 910, carboxymethyl Chitosan, and Sodium Tartrate, in a weight ratio of 25:8:8:80.
as §1, §2

[8] = PK test for small-intestinal administration of Teriparatide (ELISA); format: in vivo; settings: SD rats
Description: as §1, §2

[9] = PK test for small-intestinal administration of Thymosin alpha-1 (ELISA); format: in vivo; settings: SD rats
Description: as §1, §2

[10] = PK test for small-intestinal administration of Vasopressin (ELISA); format: in vivo; settings: SD rats
Description: as §1, §2

[11] = PK test for small-intestinal administration of Gramicidin (ELISA); format: in vivo; settings: SD rats
Description: as §1, §2

[12] = PK test for small-intestinal administration of Growth Hormone (ELISA); format: in vivo; settings: SD rats
Description: as §1, §2

[13] = PK test for small-intestinal administration of Mecasermin (ELISA); format: in vivo; settings: SD rats
Description: as §1, §2

[14] = PK test for small-intestinal administration of rInsulin (ELISA); format: in vivo; settings: SD rats; small-intestinal administration at 200 μg/kg without composition
Description: as §1, §2

[15] = small-intestinal administration at 200 μg/kg without composition
[16] = rat, in vivo, ei 200 μg/kg with composition sodium lauryl sulfate, carbomer, chitosan, sodium citrate 20:6.5:6.5:65 (1:5), vs iv 1 μg/kg

Compound: CSCC[C@H](NC(=O)[C@H](CO)NC(=O)[C@H](Cc1ccc(O)cc1)NC(=O)[C@@H](N)CO)C(=O)N[C@@H](CCC(=O)O)C(=O)N[C@@H](Cc1cnc[nH]1)C(=O)N[C@@H](Cc1ccccc1)C(=O)N[C@@H](CCCNC(=N)N)C(=O)N[C@@H](Cc1c[nH]c2ccccc12)C(=O)NCC(=O)N[C@@H](CCCCN)C(=O)N1CCC[C@H]1C(=O)N[C@H](C(=O)NCC(=O)N[C@@H](CCCCN)C(=O)N[C@@H](CCCCN)C(=O)N[C@@H](CCCNC(=N)N)C(=O)N[C@@H](CCCNC(=N)N)C(=O)N1CCC[C@H]1C(=O)N[C@H](C(=O)N[C@@H](CCCCN)C(=O)N[C@H](C(=O)N[C@@H](Cc1ccc(O)cc1)C(=O)N1CCC[C@H]1C(=O)N[C@@H](CC(N)=O)C(=O)NCC(=O)N[C@@H](C)C(=O)N[C@@H](CCC(=O)O)C(=O)N[C@@H](CC(=O)O)C(=O)N[C@@H](CCC(=O)O)C(=O)N[C@@H](CO)C(=O)N[C@@H](C)C(=O)N[C@@H](CCC(=O)O)C(=O)N[C@@H](C)C(=O)N[C@@H](Cc1ccccc1)C(=O)N1CCC[C@H]1C(=O)N[C@@H](CC(C)C)C(=O)N[C@@H](CCC(=O)O)C(=O)N[C@@H](Cc1ccccc1)C(=O)O)C(C)C)C(C)C)C(C)C [ACTH] (H-SYSMEHFRWGKPVGKKRRPVKVYPNGAEDESAEAFPLEF-OH)
- blood concentration [1, 15]: lower than the detection limit of ELISA
- bioavailability [1, 16]: 1.86%

Compound: CC[C@H](C)[C@H](NC(=O)[C@H](CCC(=O)O)NC(=O)[C@H](CCC(=O)O)NC(=O)[C@H](Cc1ccccc1)NC(=O)[C@H](CC(=O)O)NC(=O)CNC(=O)[C@H](CC(N)=O)NC(=O)CNC(=O)CNC(=O)CNC(=O)CNC(=O)[C@@H]1CCCN1C(=O)[C@H](CCCNC(=N)N)NC(=O)[C@@H]1CCCN1C(=O)[C@H](N)Cc1ccccc1)C(=O)N1CCC[C@H]1C(=O)N[C@@H](CCC(=O)O)C(=O)N[C@@H](CCC(=O)O)C(=O)N[C@@H](Cc1ccc(O)cc1)C(=O)N[C@@H](CC(C)C)C(=O)O [Bivalirudin]
- blood concentration [2, 15]: lower than the detection limit of ELISA
- bioavailability ([2]; rat, in vivo, ei 200 μg/kg with composition sodium lauryl sulfate, carbomer, chitosan, citric acid 19:6.5:7:67 (1:5), vs iv 1 μg/kg): 1.63%

Compound: CC(C)C[C@H](NC(=O)CNC(=O)[C@H](Cc1ccc(O)cc1)NC(=O)[C@H](CO)NC(=O)[C@H](Cc1c[nH]c2ccccc12)NC(=O)[C@H](Cc1cnc[nH]1)NC(=O)[C@@H]1CCC(=O)N1)C(=O)N[C@@H](CCCNC(=N)N)C(=O)N1CCC[C@H]1C(=O)NCC(N)=O [Gonadorelin]
- blood concentration ([3]; SD rats, small-intestinal administration at 200 μg/kg without composition): lower than the detection limit of ELISA
- bioavailability ([3]; male, SD, rat, plasma, 200 μg/kg): 1.58%

Compound: CCNC(=O)[C@@H]1CCCN1C(=O)[C@H](CCCNC(=N)N)NC(=O)[C@H](CC(C)C)NC(=O)[C@@H](CC(C)C)NC(=O)[C@H](Cc1ccc(O)cc1)NC(=O)[C@H](CO)NC(=O)[C@H](Cc1c[nH]c2ccccc12)NC(=O)[C@H](Cc1c[nH]cn1)NC(=O)[C@@H]1CCC(=O)N1 [Leuprolide]
- bioavailability [4]: 1.32%

Compound: C[C@@H](O)[C@@H]1NC(=O)[C@H](CCCCN)NC(=O)[C@@H](Cc2c[nH]c3ccccc23)NC(=O)[C@H](Cc2ccccc2)NC(=O)[C@@H](NC(=O)[C@H](N)Cc2ccccc2)CSSC[C@@H](C(=O)N[C@H](CO)[C@@H](C)O)NC1=O [Octreotide]
- blood concentration [5, 15]: lower than the detection limit of ELISA
- bioavailability ([5]; male, rat, plasma, ei 200 μg/kg with composition sodium lauryl sulfate, carbomer, chitosan, sodium citrate 21:7:6:69 (1:5), vs iv 1 μg/kg): 1.71%

Compound: CC[C@H](C)[C@@H]1NC(=O)[C@H](Cc2ccc(O)cc2)NC(=O)[C@@H](N)CSSC[C@@H](C(=O)N2CCC[C@H]2C(=O)N[C@@H](CC(C)C)C(=O)NCC(N)=O)NC(=O)[C@H](CC(N)=O)NC(=O)[C@H](CCC(N)=O)NC1=O [Oxytocin]
- blood concentration [6, 15]: lower than the detection limit of ELISA
- bioavailability ([6]; male, rat, plasma, ei 200 μg/kg with composition sodium lauryl sulfate, carbomer 934, water-soluble chitosan, disodium edetate 24:7.5:7:75 (1:5), vs iv 1 μg/kg): 2.58%

Compound: CC[C@H](C)[C@H](NC(=O)[C@H](Cc1ccccc1)NC(=O)[C@H](CC(=O)O)NC(=O)[C@H](CCCNC(=N)N)NC(=O)[C@H](C)NC(=O)[C@H](C)NC(=O)[C@H](CC(C)C)NC(=O)[C@H](CC(N)=O)NC(=O)[C@H](CC(=O)O)NC(=O)[C@H](CC(C)C)NC(=O)[C@@H](NC(=O)[C@@H](NC(=O)[C@H](CC(N)=O)NC(=O)[C@H](CCSC)NC(=O)[C@H](CCC(=O)O)NC(=O)[C@H](CC(=O)O)NC(=O)[C@H](CO)NC(=O)[C@H](Cc1ccccc1)NC(=O)[C@H](CO)NC(=O)CNC(=O)[C@H](CC(=O)O)NC(=O)CNC(=O)[C@@H](N)Cc1c[nH]cn1)[C@@H](C)O)[C@@H](C)CC)C(=O)N[C@@H](CC(N)=O)C(=O)N[C@@H](Cc1c[nH]c2ccccc12)C(=O)N[C@@H](CC(C)C)C(=O)N[C@H](C(=O)N[C@@H](CCC(N)=O)C(=O)N[C@H](C(=O)N[C@@H](CCCCN)C(=O)N[C@H](C(=O)N[C@H](C(=O)N[C@@H](CC(=O)O)C(=O)O)[C@@H](C)O)[C@@H](C)CC)[C@@H](C)O)[C@@H](C)CC [Teduglutide]
- blood concentration [7, 15]: lower than the detection limit of ELISA
- bioavailability ([7]; male, rat, plasma, ei 200 μg/kg with composition Tween 80, Carbomer 910, carboxymethyl Chitosan, Sodium Tartrate 25:8:8:80 (1:5), vs iv 1 μg/kg): 2.13%

Compound: CC[C@H](C)[C@H](NC(=O)[C@H](CCC(=O)O)NC(=O)[C@H](CO)NC(=O)[C@@H](NC(=O)[C@@H](N)CO)C(C)C)C(=O)N[C@@H](CCC(N)=O)C(=O)N[C@@H](CC(C)C)C(=O)N[C@@H](CCSC)C(=O)N[C@@H](Cc1cnc[nH]1)C(=O)N[C@@H](CC(N)=O)C(=O)N[C@@H](CC(C)C)C(=O)NCC(=O)N[C@@H](CCCCN)C(=O)N[C@@H](Cc1cnc[nH]1)C(=O)N[C@@H](CC(C)C)C(=O)N[C@@H](CC(N)=O)C(=O)N[C@@H](CO)C(=O)N[C@@H](CCSC)C(=O)N[C@@H](CCC(=O)O)C(=O)N[C@@H](CCCN=C(N)N)C(=O)N[C@H](C(=O)N[C@@H](CCC(=O)O)C(=O)N[C@@H](Cc1c[nH]c2ccccc12)C(=O)N[C@@H](CC(C)C)C(=O)N[C@@H](CCCN=C(N)N)C(=O)N[C@@H](CCCCN)C(=O)N[C@@H](CCCCN)C(=O)N[C@@H](CC(C)C)C(=O)N[C@@H](CCC(N)=O)C(=O)N[C@@H](CC(=O)O)C(=O)N[C@H](C(=O)N[C@@H](Cc1cnc[nH]1)C(=O)N[C@@H](CC(N)=O)C(=O)N[C@@H](Cc1ccccc1)C(=O)O)C(C)C)C(C)C [Teriparatide]
- blood concentration [8, 15]: lower than the detection limit of ELISA
- bioavailability ([8]; male, rat, plasma, ei 200 μg/kg with composition sodium lauryl sulfate, carbomer, chitosan, sodium citrate 20:6.5:6.5:65 (1:5), vs iv 1 μg/kg): 2.08%

Compound: CC[C@H](C)[C@H](NC(=O)[C@H](CCC(=O)O)NC(=O)[C@H](CO)NC(=O)[C@H](CO)NC(=O)[C@@H](NC(=O)[C@H](CC(=O)O)NC(=O)[C@@H](NC(=O)[C@H](C)NC(=O)[C@H](C)NC(=O)[C@H](CC(=O)O)NC(=O)[C@H](CO)NC(C)=O)C(C)C)[C@@H](C)O)C(=O)N[C@H](C(=O)N[C@H](C(=O)N[C@@H](CCCCN)C(=O)N[C@@H](CC(=O)O)C(=O)N[C@@H](CC(C)C)C(=O)N[C@@H](CCCCN)C(=O)N[C@@H](CCC(=O)O)C(=O)N[C@@H](CCCCN)C(=O)N[C@@H](CCCCN)C(=O)N[C@@H](CCC(=O)O)C(=O)N[C@H](C(=O)N[C@H](C(=O)N[C@@H](CCC(=O)O)C(=O)N[C@@H](CCC(=O)O)C(=O)N[C@@H](C)C(=O)N[C@@H](CCC(=O)O)C(=O)N[C@@H](CC(N)=O)C(=O)O)C(C)C)C(C)C)[C@@H](C)O)[C@@H](C)O [Thymosin alpha-1] (Ac-SDAAVDTSSEITTKDLKEKKEVVEEAEN-OH)
- blood concentration [9, 15]: lower than the detection limit of ELISA
- bioavailability [9, 16]: 0.65%

Compound: NC(=O)CC[C@@H]1NC(=O)[C@H](Cc2ccccc2)NC(=O)[C@H](Cc2ccc(O)cc2)NC(=O)[C@@H](N)CSSC[C@@H](C(=O)N2CCC[C@H]2C(=O)N[C@@H](CCCN=C(N)N)C(=O)NCC(N)=O)NC(=O)[C@H](CC(N)=O)NC1=O [Vasopressin]
- blood concentration [10, 15]: lower than the detection limit of ELISA
- bioavailability ([10]; male, rat, plasma, ei 200 μg/kg with composition sodium lauryl sulfate, carbomer, chitosan, sodium citrate 23:8:7.5:80 (1:5), vs iv 1 μg/kg): 1.81%

Compound: Gramicidin D
- bioavailability of small-intestinal administration ([11]; ei 200 μg/kg with composition sodium lauryl sulfate, carbomer, chitosan, sodium citrate 19:6:6:60 (1:5), vs iv 1 μg/kg): 1.18%
- blood concentration [11, 15]: lower than the detection limit of ELISA

Compound: Growth Hormone: Growth Hormone (rhGH)
- bioavailability of small-intestinal administration ([12]; ei 200 μg/kg with composition sodium lauryl sulfate, carbomer, chitosan, sodium citrate 20:6.5:6.5:65 (1:5), vs iv 1 μg/kg): 0.32%
- blood concentration [12, 15]: lower than the detection limit of ELISA

Compound: Mecasermin
- bioavailability of small-intestinal administration ([13]; ei 200 μg/kg with composition sodium lauryl sulfate, carbomer, chitosan, sodium citrate 21:6:7:65 (1:5), vs iv 1 μg/kg): 1.38%
- blood concentration [13, 15]: lower than the detection limit of ELISA

Compound: rInsulin: Recombinant Insulin (rInsulin)
- blood concentration [14]: lower than the detection limit of ELISA
